Data on 13 compounds can be found in ChEMBL document CHEMBL1137924, “Carbonic anhydrase inhibitors. Inhibition of the beta-class enzyme from the methanoarchaeon Methanobacterium thermoautotrophicum (Cab) with anions” (Bioorg Med Chem Lett, 2004).

SMILES strings stand for the structures. Values joined by “and” are separate entries in the source; they are usually repeats but may differ in a detail not shown here. Equal values may be shown once.

One experiment has as its target Carbonic anhydrase 4 (Homo sapiens, UniProt P22748). Briefly: Inhibitory constant against carbonic anhydrase IV.
Experiment [1] concerns the target T1, Carbonic anhydrase (Methanosarcina thermophila, UniProt P40881).
T1 sequence (P40881 whole entry): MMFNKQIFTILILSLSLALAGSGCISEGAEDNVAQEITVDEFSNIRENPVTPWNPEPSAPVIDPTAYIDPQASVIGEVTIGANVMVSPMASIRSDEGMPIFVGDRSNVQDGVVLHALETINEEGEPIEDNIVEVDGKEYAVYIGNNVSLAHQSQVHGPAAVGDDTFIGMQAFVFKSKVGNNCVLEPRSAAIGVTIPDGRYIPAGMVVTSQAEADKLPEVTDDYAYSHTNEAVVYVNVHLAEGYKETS
Format: functional.
Description: Inhibitory constant against Zn-Cam (Methanosarcina thermophila)

Experiment [2] deals with T2, Carbonic anhydrase (Methanobacterium thermoautotrophicum, UniProt Q50565).
T2 sequence (Q50565 whole entry): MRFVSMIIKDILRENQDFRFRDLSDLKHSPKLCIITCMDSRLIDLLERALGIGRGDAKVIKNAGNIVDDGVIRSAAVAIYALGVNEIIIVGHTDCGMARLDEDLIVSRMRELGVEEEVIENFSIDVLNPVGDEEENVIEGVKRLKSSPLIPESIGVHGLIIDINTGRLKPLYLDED
Set-up: species or system Methanothermobacter thermautotrophicus str. Delta H.

Experiment [3] addresses T2, Carbonic anhydrase. As to the kind of experiment: Inhibitory constant against methanoarchaeon Methanobacterium thermoautotrophicum (Cab). Set-up: species or system Methanothermobacter thermautotrophicus str. Delta H.
The next experiment has as its target Carbonic anhydrase 1 (Homo sapiens, UniProt P00915).
The target of another experiment is Carbonic anhydrase 2 (Homo sapiens, UniProt P00918).

Carbonic anhydrase 1, sequence (P00915 whole entry): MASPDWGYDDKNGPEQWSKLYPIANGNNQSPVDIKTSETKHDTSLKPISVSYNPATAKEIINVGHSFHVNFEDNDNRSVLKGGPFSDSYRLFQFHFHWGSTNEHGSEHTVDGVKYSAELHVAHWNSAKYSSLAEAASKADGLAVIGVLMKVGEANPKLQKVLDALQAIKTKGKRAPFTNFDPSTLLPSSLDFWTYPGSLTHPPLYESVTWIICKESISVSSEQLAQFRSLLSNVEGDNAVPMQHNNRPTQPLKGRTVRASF
Carbonic anhydrase 4, sequence (P22748 whole entry): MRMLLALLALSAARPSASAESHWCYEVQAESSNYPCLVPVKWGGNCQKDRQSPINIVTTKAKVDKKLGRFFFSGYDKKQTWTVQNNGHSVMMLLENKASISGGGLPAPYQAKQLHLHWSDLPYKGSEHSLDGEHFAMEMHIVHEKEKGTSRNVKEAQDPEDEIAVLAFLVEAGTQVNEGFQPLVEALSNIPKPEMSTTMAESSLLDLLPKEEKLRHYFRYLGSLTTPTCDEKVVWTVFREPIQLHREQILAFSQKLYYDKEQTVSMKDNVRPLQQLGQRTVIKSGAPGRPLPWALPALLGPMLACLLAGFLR

As a reminder, the Ki is the dissociation constant of the complex between target and ligand, obtained from inhibition or displacement. A low value points to higher affinity. Regarding `O=C(O)O` [BICARBONATE], the Ki at Carbonic anhydrase 4 is 44 mM; at Carbonic anhydrase [1], 42 mM and 6.7 mM; at Carbonic anhydrase [2], 44.9 mM and 9.6 mM.
For the compound `Br` [BROMIDE], the Ki on Carbonic anhydrase 4 was 52 mM; on Carbonic anhydrase [1], 160 mM; at Carbonic anhydrase [3] it was 42.1 mM; on Carbonic anhydrase 1, 4 mM.
Take `Cl` [HYDROCHLORIC ACID]: the Ki on Carbonic anhydrase 4 is 36 mM; at Carbonic anhydrase [1] it was > 200 mM; at Carbonic anhydrase [3] it was 152 mM; at Carbonic anhydrase 1 it was 6 mM.
In the case of `S` [HYDROGEN SULFIDE], the inhibition constant Ki was 0.05 mM at Carbonic anhydrase [1], 0.0006 mM at Carbonic anhydrase 1 and 0.7 mM at Carbonic anhydrase [2].
As to `I` [IODIDE], the inhibition constant (Ki) worked out at 11 mM at Carbonic anhydrase 4, 160 mM on Carbonic anhydrase [1], 13.2 mM on Carbonic anhydrase [3] and 0.3 mM on Carbonic anhydrase 1.
Consider `O=[N+]([O-])O` [NITRIC ACID], for which the results for the Ki at Carbonic anhydrase [1], at Carbonic anhydrase 1 and on Carbonic anhydrase [2] were 36.5 mM, 7 mM and 7.8 mM, respectively.
As to `O=NO` [NITROUS ACID], the results for the inhibitory constant (Ki) on Carbonic anhydrase [1] and on Carbonic anhydrase [2] were 6.8 mM and 44.8 mM, respectively.
`O[B-](O)(O)c1ccccc1` [OXO(PHENYL)-BORANEDIOL]: the inhibitory constant (Ki) turned out to be 0.15 mM at Carbonic anhydrase [1], 31.7 mM at Carbonic anhydrase 1, 49.2 mM at Carbonic anhydrase 2 and 0.33 mM at Carbonic anhydrase [2].
Turning to `OB(O)c1ccccc1` [PHENYLBORONIC ACID], the Ki on Carbonic anhydrase [1] came out at 0.23 mM; on Carbonic anhydrase 1, 58.6 mM; at Carbonic anhydrase [2] it was 0.2 mM.
The matching figures for `NS(=O)(=O)O` [SULFAMATE]: 9.6 mM, 0.02 mM and 44 mM.
With `NS(N)(=O)=O` [SULFAMIDE], the Ki at Carbonic anhydrase [1] is 0.07 mM.
With `O=S(=O)(O)O` [SULFURIC ACID], the inhibitory constant (Ki) at Carbonic anhydrase 4 stood at 44 mM.
At Carbonic anhydrase [1], `N#CS` [THIOCYANIC ACID] gave a Ki of 7 mM.
